According to PubChem BioAssay (NCI):
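Interpolation was linear, between the two tested concentrations surrounding the appropriate level; five concentrations were tested over 48 hours in 96-well plates. TGI is the concentration that stops growth completely.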

Assays:
Assay in all cases: growth of human tumour cells (NCI), 48 h
[1] = tested on: CCRF-CEM leukemia
[2] = tested on: HCC-2998 colon
[3] = tested on: LOX IMVI melanoma
[4] = tested on: MCF7 breast
[5] = tested on: MDA-MB-231 breast
[6] = tested on: MDA-N
[7] = tested on: PC-3 prostate
[8] = tested on: SK-MEL-2 melanoma
[9] = tested on: SNB-19 CNS
[10] = tested on: SR leukemia

| Compound | TGI [1] | TGI [2] | TGI [3] | TGI [4] | TGI [5] | TGI [6] | TGI [7] | TGI [8] | TGI [9] | TGI [10] |
| --- | --- | --- | --- | --- | --- | --- | --- | --- | --- | --- |
| C=C1CC[C@H](O)C(C)(C)[C@@H]1CC/C(C)=C/CC/C=C(\C)CC/C=C(\C)CCC=C(C)C | > 100 µM | > 100 µM | > 100 µM | > 100 µM | > 100 µM | > 100 µM | > 100 µM | > 100 µM | > 100 µM | > 100 µM |
| Cc1cc(C)n(C2OC(CO)C(O)C(O)C2O)c(=S)c1C#N (stereo not given) | > 100 µM | > 100 µM | > 100 µM | > 100 µM | > 100 µM | > 100 µM | > 100 µM | > 100 µM | > 100 µM | > 100 µM |
| COC/C=C\[C@]1(O)CCCC[C@@H]1CC(OC)OC | > 100 µM | > 100 µM | > 100 µM | > 100 µM | > 100 µM | > 100 µM | > 100 µM | > 100 µM | > 100 µM | > 100 µM |
| NCCCCC(N)C(=O)NCCNc1ccc(NCCNC(=O)C(N)CCCCN)c2c1C(=O)c1ccccc1C2=O (stereo not given) | > 100 µM | > 100 µM | > 100 µM | > 100 µM | > 100 µM | > 100 µM | > 100 µM | > 100 µM | > 100 µM | > 100 µM |
| Cc1ccccc1N=Nc1ccc(N/N=C2/CCCNC2=O)c(C)c1 | > 100 µM | > 100 µM | > 100 µM | > 100 µM | > 100 µM | > 100 µM | > 100 µM | > 100 µM | > 100 µM | > 100 µM |
| COc1cc2c(cc1OC)CCc1cc(OC)c(OC)cc1CC2 | > 100 µM | > 100 µM | > 100 µM | > 100 µM | > 100 µM | > 100 µM | > 100 µM | > 100 µM | > 100 µM | > 100 µM |
| c1csc(-c2cc(-c3cccs3)c(-c3ccsc3)s2)c1 | > 100 µM | > 100 µM | > 100 µM | > 100 µM | > 100 µM | > 100 µM | > 100 µM | > 100 µM | > 100 µM | > 100 µM |
| O=c1[nH]c(Nc2nc3ccccc3[nH]2)nc2c1CCC2 | > 100 µM | > 100 µM | > 100 µM | > 100 µM | 51.1 µM | > 100 µM | > 100 µM | > 100 µM | > 100 µM | > 100 µM |
| NC(CCC(=O)O)C(=O)N1CCN(c2nc(N3CCCC3)c3nc(Cl)c(NCc4ccccc4)nc3n2)CC1 (stereo not given) | 26.2 µM | 24.9 µM | 32.3 µM | 25.6 µM | 31.2 µM | 23.1 µM | 26.9 µM | 31.5 µM | 34.4 µM | 17.5 µM |
| CC(=O)OC1(C)C=CC(=O)C=C1 | > 100 µM | > 100 µM | > 100 µM | > 100 µM | 49.1 µM | > 100 µM | > 100 µM | 98.4 µM | > 100 µM | > 100 µM |
| CC(C)(C)C1=CC(=C(c2ccc(-c3c4nc(c(-c5ccc(C(=C6C=C(C(C)(C)C)C(=O)C(C(C)(C)C)=C6)c6cc(C(C)(C)C)c(O)c(C(C)(C)C)c6)cc5)c5ccc([nH]5)c(-c5ccc(C(=C6C=C(C(C)(C)C)C(=O)C(C(C)(C)C)=C6)c6cc(C(C)(C)C)c(O)c(C(C)(C)C)c6)cc5)c5nc(c(-c6ccc(C(=C7C=C(C(C)(C)C)C(=O)C(C(C)(C)C)=C7)c7cc(C(C)(C)C)c(O)c(C(C)(C)C)c7)cc6)c6ccc3[nH]6)C=C5)C=C4)cc2)c2cc(C(C)(C)C)c(O)c(C(C)(C)C)c2)C=C(C(C)(C)C)C1=O | > 100 µM | > 100 µM | > 100 µM | > 100 µM | > 100 µM | > 100 µM | > 100 µM | > 100 µM | > 100 µM | > 100 µM |
| COC(=O)CCc1cc(O)c2c(c1)C(C(=O)OC)C(c1ccc(O)c(O)c1)O2 (stereo not given) | > 48.7 µM | 39.8 µM | > 100 µM | > 100 µM | > 100 µM | 13.3 µM | > 100 µM | > 100 µM | > 100 µM | > 25.5 µM |
| Cc1ccc(/C=C2\CCC/C(=C\c3ccc(O)c(CN4CCCCC4)c3)C2=O)cc1 | > 29.1 µM | 15.3 µM | 10.3 µM | 23.1 µM | 22.3 µM | 25.2 µM | > 47.5 µM | > 54.8 µM | 36.5 µM | 8.62 µM |
| Cc1ccc(N=Nc2c(C)c(C#N)c(=S)n(C3OC(CO)C(O)C(O)C3O)c2C)cc1 (stereo not given) | > 100 µM | 58.5 µM | 45 µM | > 100 µM | 60 µM | > 100 µM | > 100 µM | 89.7 µM | > 100 µM | > 100 µM |
| Cc1ccc(C)c(COCCOCn2ccc(N)nc2=O)c1 | > 100 µM | > 100 µM | > 100 µM | > 100 µM | > 100 µM | > 100 µM | > 100 µM | > 100 µM | > 100 µM | > 100 µM |
| COC(=O)C1C(=O)C=CN([C@H](C)c2ccccc2)[C@@H]1Cc1ccc(OC)c(OCc2ccccc2)c1I (stereo not given in full) | > 100 µM | 32.5 µM | 27.8 µM | 49.3 µM | 46.7 µM | 34.3 µM | > 100 µM | 40 µM | 86.4 µM | > 100 µM |
| O=C1CCCC2(c3ccccc3)Nc3ccccc3N12 (stereo not given) | > 100 µM | > 100 µM | > 100 µM | > 100 µM | > 100 µM | > 100 µM | > 100 µM | > 100 µM | > 100 µM | > 100 µM |
